# Assay results from patent US20050208496A1, “Methods of testing for bronchial asthma or chronic obstructive pulmonary disease” (Genox Research, Inc., priority 2002, published 2005).
# Read-outs that look alike come from different tables or passages of the source.
# Test system: respiratory epithelial cells
substance,measurement,setting,value
"IL-13: human IL-13 (Peprotech, Inc.) added to the medium at 50 ng/mL to stimulate respiratory epithelial cells",PR01489 57777_at expression change,lot 1 Day 3 AI,−2.1
same,PSCA (63958_at) expression change,lot 1 Day 3 AI,−9.8
same,RAC2 32737_at expression change,lot 1 Day 3 AI,−4.3
same,RGC32 (57044_s_at) expression change,lot 1 Day 3 AI,−2.7
same,SCYB14 (65823_at) expression change,lot 1 Day 3 AI,−4.1
same,SEMA4B (46709_at) expression change,lot 1 Day 3 AI,−2.8
same,SERPINA3 (75248_at) expression change,lot 1 Day 3 AI,−4.8
same,SLC34A2 (48048_at) expression change,lot 1 Day 3 AI,−2.8
same,STEAP 40297_at expression change,lot 1 Day 3 AI,−2.2
same,TCF8 33439_at expression change,lot 1 Day 3 AI,−2.5
same,TGFBI (68339_at) expression change,lot 1 Day 3 AI,−2.9
same,TNRC3 41246_at expression change,lot 1 Day 3 AI,−2.9
same,TPM1 36790_at expression change,lot 1 Day 3 AI,−2.9
same,TPM1 36791_g_at expression change,lot 1 Day 3 AI,−2.5
same,TPM1 36792_at expression change,lot 1 Day 3 AI,−2.6
same,UGB 39220_at expression change,lot 1 Day 3 AI,−6
same,VIM 34091_s_at expression change,lot 1 Day 3 AI,−3.4
same,W72331 49486 at expression change,lot 1 Day 3 AI,−8
same,AA045020 (44676_at) expression change,lot 1 Day 3 IMM,−3.4
same,AA059445 46293_at expression change,lot 1 Day 3 IMM,−3.9
same,AA059458 (65626_at) expression change,lot 1 Day 3 IMM,−4.5
same,AA456099 (59567_at) expression change,lot 1 Day 3 IMM,−2
same,AI050855 (64285_at) expression change,lot 1 Day 3 IMM,−2.6
same,AI468340 (72604_at) expression change,lot 1 Day 3 IMM,−2.2
same,AI984780 (52384_s_at) expression change,lot 1 Day 3 IMM,−2.8
same,AQP5 32909_at expression change,lot 1 Day 3 IMM,−3.1
same,AW025596 52637_g_at expression change,lot 1 Day 3 IMM,−3.1
same,COL12A1 (44730_at) expression change,lot 1 Day 3 IMM,−2.9
same,"DSC3a, b 47119_at expression change",lot 1 Day 3 IMM,−2.6
same,HIN-1 (46200_at) expression change,lot 1 Day 3 IMM,−3.1
same,IVL 36355_at expression change,lot 1 Day 3 IMM,−8.4
same,KIAA1376 (62972_at) expression change,lot 1 Day 3 IMM,−2.5
same,KLF7 34216_at expression change,lot 1 Day 3 IMM,−3.3
same,KRT6B (62998_at) expression change,lot 1 Day 3 IMM,−3.5
same,LCE 45605_at expression change,lot 1 Day 3 IMM,−2.1
same,LOC51297 (49616_at) expression change,lot 1 Day 3 IMM,−4
same,LOC51297 (55440_at) expression change,lot 1 Day 3 IMM,−10.5
same,LOC51297 (55442_g_at) expression change,lot 1 Day 3 IMM,−4.9
same,LOC55893 (64071_at) expression change,lot 1 Day 3 IMM,−2
same,LOC129642 (42065_at) expression change,lot 1 Day 3 IMM,−2
same,MGC12536 46924_at expression change,lot 1 Day 3 IMM,−2.1
same,MGC14128 (51669_r_at) expression change,lot 1 Day 3 IMM,−2.2
same,MGC14597 (46030_at) expression change,lot 1 Day 3 IMM,−3.1
same,MGC16207 (65876_at) expression change,lot 1 Day 3 IMM,−4.5
same,N71183 52473_at expression change,lot 1 Day 3 IMM,−2.4
same,PR01489 57777_at expression change,lot 1 Day 3 IMM,−3.4
same,RAC2 32737_at expression change,lot 1 Day 3 IMM,−3.5
same,SLC11A3 (45826_at) expression change,lot 1 Day 3 IMM,−2.3
same,STEAP 40297_at expression change,lot 1 Day 3 IMM,−2.3
same,TCF8 33439_at expression change,lot 1 Day 3 IMM,−2.7
same,TPM1 36791_g_at expression change,lot 1 Day 3 IMM,−2.2
same,UCP2 37591_at expression change,lot 1 Day 3 IMM,−2.3
same,UGB 39220_at expression change,lot 1 Day 3 IMM,−4
same,VIM 34091_s_at expression change,lot 1 Day 3 IMM,−3.2
same,W72331 49486 at expression change,lot 1 Day 3 IMM,−3.2
same,AA045020 (44676_at) expression change,"lot 2, Day 3, AI",−5.7
same,AA059445 46293_at expression change,"lot 2, Day 3, AI",−4.5
same,AA059458 (65626_at) expression change,"lot 2, Day 3, AI",−5.8
same,AA079839 (69289_at) expression change,"lot 2, Day 3, AI",−2
same,AA160156 (47578_at) expression change,"lot 2, Day 3, AI",−2.3
same,AA369887 (87539_i_at) expression change,"lot 2, Day 3, AI",−3.4
same,AA456099 (59567_at) expression change,"lot 2, Day 3, AI",−2.1
same,AA772055 46104_at expression change,"lot 2, Day 3, AI",−2.7
same,AA779895 59136_at expression change,"lot 2, Day 3, AI",−3.2
same,AF052107 38262_at expression change,"lot 2, Day 3, AI",−3.8
same,AI050855 (64285_at) expression change,"lot 2, Day 3, AI",−2.9
same,AI264299 (84903_f_at) expression change,"lot 2, Day 3, AI",−10.4
same,AI432375 (49819_at) expression change,"lot 2, Day 3, AI",−2.6
same,AI468340 (72604_at) expression change,"lot 2, Day 3, AI",−2.4
same,AI669212 55436_at expression change,"lot 2, Day 3, AI",−3.7
same,AI740855 (83076_at) expression change,"lot 2, Day 3, AI",−2.7
same,AI760772 (58528_s_at) expression change,"lot 2, Day 3, AI",−2
same,AI770116 (70124_at) expression change,"lot 2, Day 3, AI",−2.6
same,AI798733 (64163_at) expression change,"lot 2, Day 3, AI",−2.3
same,AI829641 (84270_at) expression change,"lot 2, Day 3, AI",−24.1
same,AI917602 (49985_at) expression change,"lot 2, Day 3, AI",−2.4
same,AI948584 48086_at expression change,"lot 2, Day 3, AI",−15.6
same,AI984780 (52384_s_at) expression change,"lot 2, Day 3, AI",−5.3
same,AQP5 32909_at expression change,"lot 2, Day 3, AI",−5.1
same,AW022213 (79520_at) expression change,"lot 2, Day 3, AI",−2.9
same,AW025596 52634_at expression change,"lot 2, Day 3, AI",−2
same,AW025596 52637_g_at expression change,"lot 2, Day 3, AI",−7.5
same,B4GALT5 56373_at expression change,"lot 2, Day 3, AI",−2.2
same,BARX2 35425_at expression change,"lot 2, Day 3, AI",−2.5
same,BPGM (51261_at) expression change,"lot 2, Day 3, AI",−2.5
same,CBLB 514_at expression change,"lot 2, Day 3, AI",−4.6
same,CRABP-II 1057_at expression change,"lot 2, Day 3, AI",−4.7
same,CRABP-II 41783_at expression change,"lot 2, Day 3, AI",−5.4
same,DHCR24 (74557_s_at) expression change,"lot 2, Day 3, AI",−2.1
same,DKFZp434K1210 44682_at expression change,"lot 2, Day 3, AI",−2.9
same,DREV1 (63813_at) expression change,"lot 2, Day 3, AI",−2.1
same,"DSC3a, b 47119_at expression change","lot 2, Day 3, AI",−2.2
same,EIF4EBP1 (54152_at) expression change,"lot 2, Day 3, AI",−2.3
same,FLJ10298 (62490_f_at) expression change,"lot 2, Day 3, AI",−3.4
same,FLJ10718 52072_at expression change,"lot 2, Day 3, AI",−5.5
same,FLJ12541 43546_at expression change,"lot 2, Day 3, AI",−3.8
same,FLJ20048 (49196_at) expression change,"lot 2, Day 3, AI",−2.3
same,FLJ20373 54030_at expression change,"lot 2, Day 3, AI",−2.4
same,FLJ23516 47534_at expression change,"lot 2, Day 3, AI",−2.6
same,GJA1 32531_at expression change,"lot 2, Day 3, AI",−6.8
same,GSTA3 58023 at expression change,"lot 2, Day 3, AI",−5.3
same,HEY1 44783_s_at expression change,"lot 2, Day 3, AI",−5.4
same,HIN-1 (46200_at) expression change,"lot 2, Day 3, AI",−28
same,HSPC195 44705_at expression change,"lot 2, Day 3, AI",−2
same,ID1 36619_r_at expression change,"lot 2, Day 3, AI",−2.3
same,IVL 36355_at expression change,"lot 2, Day 3, AI",−3.6
same,K1IAA1102 (64345_s_at) expression change,"lot 2, Day 3, AI",−3.2
